Common to all, as to assay: NCI-60 cell line screen, 48 h
The subject of test [1] is A498.
The subject of test [2] is COLO 205.
Test [3] deals with EKVX.
Test [4] relates to HL-60.
The subject of test [5] is HOP-92.
For test [6], the system named is HT-29.
Test [7] has as its system K562.
Test [8] relates to MOLT-4.
The subject of test [9] is NCI-H460.
Test [10] has as its system OVCAR-8.
Test [11] deals with RPMI-8226.
In test [12] the test system is RXF 393.
Test [13] concerns SF-295.
Test [14] relates to SN12C.
Test [15] has as its system SNB-75.
The subject of test [16] is UO-31.
In test [17] the test system is HOP-62.
Test [18] deals with OVCAR-3.
Test [19] concerns SF-539.
In test [20] the test system is UACC-62.

Each structure is given as a SMILES string.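 Values below derive from 48-hour exposures of cells grown in 96-well plates, with endpoints linearly interpolated between the two concentrations bracketing the appropriate inhibition level. GI50: concentration for 50% inhibition of growth.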 The source made the active and inactive calls. Cut-off read from the data, not from the text of the source: active = GI50 up to about 1.1 µM and inactive = higher.

`CCNc1cc2c(cc1O)CC[C@@H]1[C@@H]2CC[C@]2(C)[C@@H](O)CC[C@@H]12`: the GI50 in test [1] was 1.7 µM (inactive); in [2], 14.4 µM (inactive); in [3], 16.3 µM (inactive); in test [4], 1.52 µM (inactive); in [5], 10.3 µM (inactive); in test [6], 15.8 µM (inactive). The GI50 in test [7] is 0.711 µM (active); in test [8] it was 3.13 µM (inactive); in [9], 0.489 µM (active); in test [10], 11.7 µM (inactive); in [11] it was 2.31 µM (inactive); in test [12] it was 3.53 µM (inactive). Also, the GI50 in test [13] is 0.912 µM (active); in [14], 15.3 µM (inactive); in test [15], 0.272 µM (active); in test [16] it was 6.75 µM (inactive).
Turning to `Oc1cc(-c2ccc(Cl)cc2)cn2c1nc1ccccc12`, the GI50 is > 100 µM (inactive) in test [1]; > 100 µM (inactive) in test [2]; > 100 µM (inactive) in [3]; 2.66 µM (inactive) in test [4]; 31.3 µM (inactive) in test [17]; > 100 µM (inactive) in test [5]. For the same molecule, the GI50 in [6] is > 100 µM (inactive); in test [7] it was 2.3 µM (inactive); in test [9], 5.21 µM (inactive); in [18], > 100 µM (inactive); in test [10] it was 17.6 µM (inactive); in test [12], > 100 µM (inactive). The GI50 is > 100 µM (inactive) in test [13]; > 100 µM (inactive) in test [19]; > 100 µM (inactive) in [14]; 16.1 µM (inactive) in test [15]; 29.4 µM (inactive) in [20]; > 100 µM (inactive) in [16].
`COc1ccc(CC(COS(=O)(=O)c2ccc(C)cc2)NS(=O)(=O)c2ccc(C)cc2)cc1` (stereo not drawn): the GI50 in [1] is 12.8 µM (inactive); in [2] it was 11.7 µM (inactive); in test [3] it was 14.6 µM (inactive); in [17], 16.7 µM (inactive); in test [5], 6.56 µM (inactive); in test [6], 10.2 µM (inactive). Further, the GI50 in [7] was 43.2 µM (inactive); in test [8], > 100 µM (inactive); in [9], 11.5 µM (inactive); in [18], 9.55 µM (inactive); in [10], 15.3 µM (inactive); in [11] it was 15.2 µM (inactive). The GI50 in test [12] is 3.27 µM (inactive); in test [13], 13.7 µM (inactive); in test [19], 17.1 µM (inactive); in [14], 15.4 µM (inactive); in test [15] it was 8.91 µM (inactive); in [20], 6.98 µM (inactive). In addition, the GI50 in test [16] was 12.4 µM (inactive).
As for `CCOC(=O)CCSS(=O)(=O)c1ccccc1`, the GI50 in test [1] was > 100 µM (inactive); in test [2], 97.7 µM (inactive); in test [3], > 100 µM (inactive); in test [4], 35.8 µM (inactive); in [17] it was > 100 µM (inactive); in test [5] it was 86.7 µM (inactive). The GI50 is > 100 µM (inactive) in test [9]; > 100 µM (inactive) in test [18]; > 100 µM (inactive) in test [10]; 35 µM (inactive) in test [11]; > 100 µM (inactive) in [12]; > 100 µM (inactive) in [13]. The GI50 in test [14] was > 100 µM (inactive); in test [15], > 100 µM (inactive); in test [20], > 100 µM (inactive); in test [16], > 10 µM (inactive).
Take `O=C(O)C1CCCN1Cc1ccc2c(c1)OCO2` (stereo not drawn): the GI50 in test [1], in test [2], in test [3], in test [17], in [5] and in test [6] was > 100 µM (inactive) throughout. For the same molecule, the GI50 in [7], in [8], in test [9], in test [18], in test [10] and in test [11] was > 100 µM (inactive) each time. For the same molecule, the GI50 was > 100 µM (inactive) in test [12]; > 100 µM (inactive) in test [13]; > 100 µM (inactive) in [19]; > 100 µM (inactive) in test [14]; 18.4 µM (inactive) in test [15]; > 100 µM (inactive) in test [20]. Besides, in test [16], the GI50 was > 100 µM (inactive).
As for `CCCC/C=C1\CCC(CN2CCCCC2)C1=O` (stereo not drawn), the GI50 in test [1] is 25.7 µM (inactive); in test [2] it was 12 µM (inactive); in test [3], 26.1 µM (inactive); in test [4] it was 7.6 µM (inactive); in [17] it was 33 µM (inactive); in test [5] it was 10.9 µM (inactive). The GI50 in test [6] was 10.9 µM (inactive); in [7] it was 7.82 µM (inactive); in test [8], 8.38 µM (inactive); in [9], 33.6 µM (inactive); in [18], 29.8 µM (inactive); in test [10], 12.8 µM (inactive). Moreover, the GI50 is 10.9 µM (inactive) in test [12]; 30.5 µM (inactive) in test [13]; 19 µM (inactive) in [19]; 11.5 µM (inactive) in [14]; > 100 µM (inactive) in test [15]; 11.4 µM (inactive) in test [20]. Moreover, in test [16], the GI50 was 32.8 µM (inactive).
Consider `CCC1CCN=C(Cn2cc(C)c(=O)[nH]c2=O)N1` (stereo not drawn), for which the GI50 in [1], in test [2], in test [3], in test [17], in test [5] and in test [6] was > 100 µM (inactive) each time. The GI50 in test [9], in [10], in test [12], in [13], in test [14] and in [15] was > 100 µM (inactive) each time. Besides, the GI50 in [20] and in [16] was > 100 µM (inactive) in each case.
As for `Nc1nc(Br)nc2ncn(C3CC(O)C(CO)O3)c12` (stereo not drawn), the GI50 is > 100 µM (inactive) in test [1]; 67.3 µM (inactive) in test [2]; > 100 µM (inactive) in [3]; > 100 µM (inactive) in test [17]; 2.42 µM (inactive) in test [5]; 52.7 µM (inactive) in test [6]. In addition, the GI50 was 23.4 µM (inactive) in test [7]; 0.0212 µM (active) in [8]; 85.1 µM (inactive) in [9]; > 100 µM (inactive) in test [18]; 0.236 µM (active) in test [10]; > 90.2 µM (inactive) in test [11]. For the same molecule, the GI50 in test [12] is > 100 µM (inactive); in test [13], > 100 µM (inactive); in test [19] it was 58.7 µM (inactive); in test [14], 10 µM (inactive); in [15] it was > 100 µM (inactive); in test [20] it was 11.9 µM (inactive). Moreover, the GI50 in test [16] is 7.21 µM (inactive).
Consider `Cc1cn(CC2=NCCN2)c(=O)[nH]c1=O`, for which the GI50 in [1], in test [2], in test [3], in [4], in test [17] and in test [5] was > 100 µM (inactive) each time. Also, the GI50 in [6], in test [7], in test [8], in test [9], in test [10] and in test [11] was > 100 µM (inactive) in each case. In addition, the GI50 in test [12], in [13], in test [14], in [15], in [20] and in [16] was > 100 µM (inactive) in each case.
Take `O=c1[nH]c(=O)n(C2OC(CO)C(O)C2O)cc1OCCc1ccccc1` (stereo not drawn): the GI50 in test [1], in test [2], in test [3], in test [4], in [17] and in test [5] was > 100 µM (inactive) each time. Also, the GI50 in [6], in test [8], in [9], in test [18], in [10] and in test [12] was > 100 µM (inactive) each time. In addition, the GI50 in [13], in test [19], in test [14] and in test [20] was > 100 µM (inactive) throughout.
Consider `CCCCCC/C=C1\CCC(CN2CCOCC2)C1=O` (stereo not drawn), for which the GI50 was 18 µM (inactive) in test [1]; 17.1 µM (inactive) in test [2]; 14.1 µM (inactive) in test [3]; 2.77 µM (inactive) in test [4]; 18.3 µM (inactive) in test [17]; 16.3 µM (inactive) in test [5]. The GI50 in test [6] is 17.7 µM (inactive); in test [7], 3.07 µM (inactive); in test [8] it was 5.26 µM (inactive); in test [9], 38.7 µM (inactive); in [18], 18.5 µM (inactive); in [10] it was 16.8 µM (inactive). The GI50 is 2.24 µM (inactive) in test [11]; 17.7 µM (inactive) in test [13]; 16.9 µM (inactive) in [19]; 17.2 µM (inactive) in test [14]; 21 µM (inactive) in test [15]; 16.8 µM (inactive) in test [20]. Besides, the GI50 in test [16] is 14.3 µM (inactive).

These data come from ChEMBL document CHEMBL1201862, “PubChem BioAssay data set” (2004).
